Consider 24 molecules from patent US7358268B2, “Imidazole derivatives as factor Xa inhibitors” (Sanofi-Aventis Deutschland GmbH, priority 2002, dated 2008).

T1 sequence (P00742 235-488 limits assumed): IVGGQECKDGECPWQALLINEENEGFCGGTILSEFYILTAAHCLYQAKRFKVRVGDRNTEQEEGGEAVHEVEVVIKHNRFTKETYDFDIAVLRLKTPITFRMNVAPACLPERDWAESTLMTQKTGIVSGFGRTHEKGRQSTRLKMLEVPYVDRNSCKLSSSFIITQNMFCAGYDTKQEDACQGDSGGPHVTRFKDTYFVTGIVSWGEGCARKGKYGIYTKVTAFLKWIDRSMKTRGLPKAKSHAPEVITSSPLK
T1 sequence (P00742 41-179 partner limits assumed): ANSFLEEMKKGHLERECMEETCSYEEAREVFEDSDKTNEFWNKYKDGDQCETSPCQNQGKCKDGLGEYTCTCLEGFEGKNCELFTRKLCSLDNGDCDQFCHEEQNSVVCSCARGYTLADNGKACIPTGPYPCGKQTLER

The experiment concerns the target T1, human factor Xa (Homo sapiens, UniProt P00742).
T1 construct: 25 μl human factor Xa (Enzyme Research Laboratories, Inc; South Bend, Ind.) in TBS-PEG; purchased Enzyme Research Laboratories, Inc; South Bend, Ind
The experiment can be described thus: Factor Xa assay (chromogenic, purified enzyme). It counts as biochemical. To be noted: inhibition constant for factor Xa; chromogenic substrate S-2765 140 μM, enzyme 0.5 nM, 25° C., pH 7.8; Ki calculated from IC50 (Ki=IC50/{1+(substrate concentration/Km)}); read-out: Ki(FXa). Here is the method: The ability of the compounds of the formula I to inhibit factor Xa or factor VIIa or other enzymes like thrombin, plasmin, or trypsin can be assessed by determining the concentration of the compound of the formula I that inhibits enzyme activity by 50%, i. e. the IC50 value, which was related to the inhibition constant Ki. Purified enzymes were used in chromogenic assays. The concentration of inhibitor that causes a 50% decrease in the rate of substrate hydrolysis was determined by linear regression after plotting the relative rates of hydrolysis (compared to the uninhibited control) versus the log of the concentration of the compound of formula I. For calculating the inhibition constant Ki, the IC50 value was corrected for competition with substrate using the formula Ki=IC50/{1+(substrate concentration/Km)} wherein Km is the Michaelis-Menten constant (Chen and Prusoff, Biochem. Pharmacol. 22 (1973), 3099-3108; I. H. Segal, Enzyme Kinetics, 1975, John Wiley & Sons, New York, 100-125; which were incorporated herein by reference). a) Factor Xa Assay
In the assay for determining the inhibition of factor Xa activity TBS-PEG buffer (50 mM Tris-HCl, pH 7.8, 200 mM NaCl, 0.05% (w/v) PEG-8000, 0.02% (w/v) NaN3) was used. The IC50 was determined by combining in appropriate wells of a Costar half-area microtiter plate 25 μl human factor Xa (Enzyme Research Laboratories, Inc.; South Bend, Ind.) in TBS-PEG; 40 μl 10% (v/v) DMSO in TBS-PEG (uninhibited control) or various concentrations of the compound to be tested diluted in 10% (v/v) DMSO in TBS-PEG; and substrate S-2765 (N(α)-benzyloxycarbonyl-D-Arg-Gly-L-Arg-p-nitroanilide; Kabi Pharmacia, Inc.; Franklin, Ohio) in TBS-PEG.
The assay was performed by pre-incubating the compound of formula I plus enzyme for 10 min. Then the assay was initiated by adding substrate to obtain a final volume of 100 μl. The initial velocity of chromogenic substrate hydrolysis was measured by the change in absorbance at 405 nm using a Bio-tek Instruments kinetic plate reader (Ceres UV900HDi) at 25° C. during the linear portion of the time course (usually 1.5 min after addition of substrate). The enzyme concentration was 0.5 nM and substrate concentration was 140 μM.
Take `CC(C)N1CCC(NC(=O)c2cncn2Cc2cc(-c3ccc(Cl)s3)on2)CC1` [Example 1, 3-[5-(5-Chloro-thiophen-2-yl)-isoxazol-3-ylmethyl]-3H-imidazole-4-carboxylic acid (1-isopropyl-piperidin-4-yl)-amide]: the Ki was 65 nM. Next, `CC(C)N1CCC(NC(=O)c2c(Cl)nc(-c3ccccc3)n2Cc2cc(-c3ccc(Cl)s3)on2)CC1` [Example 3, 5-Chloro-3-[5-(5-chloro-thiophen-2-yl)-isoxazol-3-ylmethyl]-2-phenyl-3H-imidazole-4-carboxylic acid (1-isopropyl-piperidin-4-yl)-amide]: 7 nM; `CCc1nc(C)c(C(=O)NC2CCN(C(C)C)CC2)n1Cc1cc(-c2ccc(Cl)s2)on1` [Example 5, 3-[5-(5-Chloro-thiophen-2-yl)-isoxazol-3-ylmethyl]-2-ethyl-5-methyl-3H-imidazole-4-carboxylic acid (1-isopropyl-piperidin-4-yl)-amide]: 27 nM; `CCc1nc(C(=O)NC2CCN(C(C)C)CC2)c(C)n1Cc1cc(-c2ccc(Cl)s2)on1` [Example 6, 1-[5-(5-Chloro-thiophen-2-yl)-isoxazol-3-ylmethyl]-2-ethyl-5-methyl-1H-imidazole-4-carboxylic acid (1-isopropyl-piperidin-4-yl)-amide]: 530 nM. To `Cc1nc(I)n(Cc2cc(-c3ccc(Cl)s3)on2)c1C(=O)NC1CCN(C(C)C)CC1` [Example 7, 3-[5-(5-Chloro-thiophen-2-yl)-isoxazol-3-ylmethyl]-2-iodo-5-methyl-3H-imidazole-4-carboxylic acid (1-isopropyl-piperidin-4-yl)-amide] belongs 1 nM; to `COCc1ncc(C(=O)NC2CCN(C(C)C)CC2)n1Cc1cc(-c2ccc(Cl)s2)on1` [Example 9, 3-[5-(5-Chloro-thiophen-2-yl)-isoxazol-3-ylmethyl]-2-methoxymethyl-3H-imidazole-4-carboxylic acid (1-isopropyl-piperidin-4-yl)-amide], 86 nM. Next, `CC(C)N1CCC(NC(=O)c2cnc(C3CC3)n2Cc2cc(-c3ccc(Cl)s3)on2)CC1` [Example 11, 3-[5-(5-Chloro-thiophen-2-yl)-isoxazol-3-ylmethyl]-2-cyclopropyl-3H-imidazole-4-carboxylic acid (1-isopropyl-piperidin-4-yl)-amide]: 4 nM. Consider `CC(C)N1CCC(NC(=O)c2cnc(-c3c(F)cccc3F)n2Cc2cc(-c3ccc(Cl)s3)on2)CC1` [Example 12, 3-[5-(5-Chloro-thiophen-2-yl)-isoxazol-3-ylmethyl]-2-(2,6-difluoro-phenyl)-3H-imidazole-4-carboxylic acid (1-isopropyl-piperidin-4-yl)-amide], for which the Ki is 18 nM. As for `COCCc1ncc(C(=O)NC2CCN(C(C)C)CC2)n1Cc1cc(-c2ccc(Cl)s2)on1` [Example 14, 3-[5-(5-Chloro-thiophen-2-yl)-isoxazol-3-ylmethyl]-2-(2-methoxy-ethyl)-3H-imidazole-4-carboxylic acid (1-isopropyl-piperidin-4-yl)-amide], the Ki is 401 nM. Next, `CC(C)N1CCC(NC(=O)c2cnc(-c3c(Cl)cccc3Cl)n2Cc2cc(-c3ccc(Cl)s3)on2)CC1` [Example 15, 3-[5-(5-Chloro-thiophen-2-yl)-isoxazol-3-ylmethyl]-2-(2,6-dichloro-phenyl)-3H-imidazole-4-carboxylic acid (1-isopropyl-piperidin-4-yl)-amide]: 56 nM; `CC(C)c1ncc(C(=O)NC2CCN(C(C)C)CC2)n1Cc1cc(-c2ccc(Cl)s2)on1` [Example 16, 3-[5-(5-Chloro-thiophen-2-yl)-isoxazol-3-ylmethyl]-2-isopropyl-3H-imidazole-4-carboxylic acid (1-isopropyl-piperidin-4-yl)-amide]: 254 nM. Next, `CC(C)N1CCC(NC(=O)c2cnc(-c3ccccn3)n2Cc2cc(-c3ccc(Cl)s3)on2)CC1` [Example 17, 3-[5-(5-Chloro-thiophen-2-yl)-isoxazol-3-ylmethyl]-2-pyridin-2-yl-3H-imidazole-4-carboxylic acid (1-isopropyl-piperidin-4-yl)-amide]: 112 nM. To `Cc1nc(-c2ccccc2)n(Cc2cc(-c3ccc(Cl)s3)on2)c1C(=O)NC1CCN(C(C)C)CC1` [Example 18, 3-[5-(5-Chloro-thiophen-2-yl)-isoxazol-3-ylmethyl]-5-methyl-2-phenyl-3H-imidazole-4-carboxylic acid (1-isopropyl-piperidin-4-yl)-amide] belongs 7 nM; to `CC(C)N1CCC(NC(=O)c2cnc(-c3cccnc3)n2Cc2cc(-c3ccc(Cl)s3)on2)CC1` [Example 20, 3-[5-(5-Chloro-thiophen-2-yl)-isoxazol-3-ylmethyl]-2-pyridin-3-yl-3H-imidazole-4-carboxylic acid (1-isopropyl-piperidin-4-yl)-amide], 358 nM. For `Cc1nc(-c2ncc(C(=O)NC3CCN(C(C)C)CC3)n2Cc2cc(-c3ccc(Cl)s3)on2)cs1` [Example 21, 3-[5-(5-Chloro-thiophen-2-yl)-isoxazol-3-ylmethyl]-2-(2-methyl-thiazol-4-yl)-3H-imidazole-4-carboxylic acid (1-isopropyl-piperidin-4-yl)-amide], the Ki is 243 nM.

Take `CCS(=O)(=O)c1ncc(C(=O)NC2CCN(C(C)C)CC2)n1Cc1cc(-c2ccc(Cl)s2)on1` [Example 23, 3-[5-(5-Chloro-thiophen-2-yl)-isoxazol-3-ylmethyl]-2-ethanesulfonyl-3H-imidazole-4-carboxylic acid (1-isopropyl-piperidin-4-yl)-amide]: the Ki is 6 nM.

Consider `Cc1nc(C(N)=O)n(Cc2cc(-c3ccc(Cl)s3)on2)c1C(=O)NC1CCN(C(C)C)CC1` [Example 24, 3-[5-(5-Chloro-thiophen-2-yl)-isoxazol-3-ylmethyl]-5-methyl-3H-imidazole-2,4-dicarboxylic acid 2-amide 4-[(1-isopropyl-piperidin-4-yl)-amide]], for which the inhibition constant (Ki) is 22 nM. Next, `Cc1nc(Br)n(Cc2cc(-c3ccc(Cl)s3)on2)c1C(=O)NC1CCN(C(C)C)CC1` [Example 26, 2-Bromo-3-[5-(5-chloro-thiophen-2-yl)-isoxazol-3-ylmethyl]-5-methyl-3H-imidazole-4-carboxylic acid (1-isopropyl-piperidin-4-yl)-amide]: 3 nM; `CC(C)N1CCC(NC(=O)c2cncn2CC(=O)Nc2ccc(Cl)cn2)CC1` [Example 29, 3-[(5-Chloro-pyridin-2-ylcarbamoyl)-methyl]-3H-imidazole-4-carboxylic acid (1-isopropyl-piperidin-4-yl)-amide]: 140 nM. Next, `COCc1ncc(C(=O)NC2CCN(C(C)C)CC2)n1CC(=O)Nc1ccc(Cl)cc1` [Example 30, 3-[(4-Chloro-phenylcarbamoyl)-methyl]-2-methoxymethyl-3H-imidazole-4-carboxylic acid (1-isopropyl-piperidin-4-yl)-amide]: 35 nM. Next, `CC(C)N1CCC(NC(=O)c2c(Cl)nc(-c3ccccc3)n2CC(=O)Nc2ccc(Cl)cn2)CC1` [Example 33, 5-Chloro-3-[(5-chloro-pyridin-2-ylcarbamoyl)-methyl]-2-phenyl-3H-imidazole-4-carboxylic acid (1-isopropyl-piperidin-4-yl)-amide]: 103 nM; `CCOC(=O)c1ncc(C(=O)NC2CCN(C(C)C)CC2)n1Cc1cc(-c2ccc(Cl)s2)on1` [Example 37, 1-[5-(5-Chloro-thiophen-2-yl)-isoxazol-3-ylmethyl]-5-(1-isopropyl-piperidin-4-ylcarbamoyl)-1H-imidazole-2-carboxylic acid ethyl ester]: 8 nM; `CC(C)N1CCC(NC(=O)c2nc(C(=O)OC(C)(C)C)cn2Cc2cc(-c3ccc(Cl)s3)on2)CC1` [Example 38, 1-[5-(5-Chloro-thiophen-2-yl)-isoxazol-3-ylmethyl]-2-(1-isopropyl-piperidin-4-ylcarbamoyl)-1H-imidazole-4-carboxylic acid tert-butyl ester]: 174 nM. `CC(C)N1CCC(NC(=O)c2nc(C(=O)O)cn2Cc2cc(-c3ccc(Cl)s3)on2)CC1` [Example 39, 1-[5-(5-Chloro-thiophen-2-yl)-isoxazol-3-ylmethyl]-2-(1-isopropyl-piperidin-4-ylcarbamoyl)-1H-imidazole-4-carboxylic acid]: the inhibition constant Ki was 117 nM.

For orientation: Ki means the equilibrium dissociation constant of an inhibitor or competing ligand from its target.
